Results taken from a melting point compilation (Tetko et al.; mined from patent text by program, amines drawn as free bases though some values may be those of a salt).

Row | SMILES | melting point [°C]
1 | CCCCC(Oc1c(Br)cc(-c2c3ccccc3c(Br)c3sc4ccccc4c23)cc1Br)C(=O)O (stereo not drawn) | 212 to 213
2 | N#Cc1ccc(N(Cc2ccc(O)cc2)n2ccnc2)cc1 | 180
3 | CC(C)(C)NNC(=S)c1ccccc1 | 165 to 168
4 | Cc1c(Sc2ccccc2)c2cccc3c2n1C(CN1CCOCC1)CO3 (single isomer, unassigned; (+)) | 126 to 128
5 | COc1ccc2c(c1)CCC1C2CCC2(C)C1CCC2N(C=O)CCCO (stereo not drawn) | 159 to 161
6 | COc1ccc(N2c3ccccc3CCC2c2ccccc2)cc1 (stereo not drawn) | 88 to 90
7 | COc1ccc(CN2C(=O)C(C)(c3cc(N(S(C)(=O)=O)S(C)(=O)=O)ccc3Cl)c3cc(Cl)ccc32)c(OC)c1 (stereo not drawn) | 159
8 | COc1ccnc(CCc2nc3cc(-c4ccc(S(=O)(=O)N5CCN(Cc6ccccc6)CC5)cc4)cnc3[nH]2)c1 | 160 to 162
9 | CCOC(=O)c1cc([N+](=O)[O-])cn1CCC(C)C | 46 to 47
10 | O=C(c1ccccc1)c1ccc(-c2nc(CCl)co2)cc1 | 138 to 139
11 | Clc1cccc(Nc2nccc(-c3ccncc3)n2)c1 | 167 to 168
12 | COc1ccc(-n2nc(CCC(=O)N(C)O)cc2-c2ccc(F)cc2)cc1 | 151 to 154
13 | CCCCNC(=O)c1cnc2cccc(C)n2c1=O | 127 to 130
14 | COC(=O)CCc1oc(-n2ccnc2S(C)(=O)=O)nc1-c1ccc(Cl)cc1 | 112 to 113
15 | CN1C(=O)CC[C@]2(C)c3ccc(-c4ccc(NC(=O)C(C)(C)C)cc4)cc3CC[C@@H]12 | > 265
16 | COc1ccc([N+](=O)[O-])c(Nc2ccc3[nH]ncc3c2)n1 | 206 to 208
17 | CCc1ccc(-c2ccc(I)cc2)cc1 | 145 to 149
18 | Nc1cccc(C2CN3CCSC3=N2)c1 (stereo not drawn) | 177 to 179
19 | COc1cc([N+](=O)[O-])c(CCCCC(=O)O)c([N+](=O)[O-])c1O | 168 to 170
20 | CC(C(N)=O)c1ccc2c(c1)CCc1ccccc1C2=O (stereo not drawn) | 175
21 | Cn1cc(-c2cccc(C(F)(F)F)c2)c(=O)c(-c2ccc(Cl)c(Cl)c2)c1 | 109 to 112
22 | NNC(=O)c1ccc(-c2csc(N=C(N)N)n2)o1 | 279 to 280
23 | O=C1c2ccccc2-c2c1c(N1CCN(c3ccccn3)CC1)nc1ccc(Br)cc21 | 186 to 188
24 | Cc1nc(-n2ccc(NCc3ccccc3)cc2=O)sc1C(=O)NCc1ccccc1 | 253 to 255
25 | Cc1cc(C2=NN(C(=O)C=CCC(=O)O)C(C)Cc3cc4c(cc32)OCO4)ccc1[N+](=O)[O-] (stereo not drawn) | 158 to 160

Row | SMILES | melting point [°C]
26 | CCCCCCc1cc2c(cc1OCCCC(=O)O)C(=O)CCC2 | 81
27 | Cc1cc(C)c(Nc2nc(C)ccc2S(=O)(=O)c2ccc(OCc3cccc(C#N)c3)cc2)c(C)c1 | 155 to 158
28 | CCCCCC(=O)NCc1ccco1 | 54 to 55
29 | O=C(c1ccc(Cl)cc1)c1noc(CS(=O)c2ccccc2)n1 (stereo not drawn) | 93 to 95
30 | Cc1c(C(=O)Nc2ccc(N3CCN(C4CCOCC4)CC3)c(C#N)c2)cnn1-c1ccc(Br)cc1 | 288
31 | O=[N+]([O-])c1ccc(-c2nnc3ccc(N=CCN4CCCCC4)nn23)o1 | 207 to 209
32 | CC1(C)C(=O)N(c2ccc(C#N)c(C(F)(F)F)c2)C(=O)N1CC1OC1CN1C(=O)N(c2ccc(C#N)c(C(F)(F)F)c2)C(=O)C1(C)C (stereo not drawn) | 108 to 110
33 | COc1ccc2cc(-c3cnc(-c4cn(C)c5ccccc45)o3)ccc2c1 | 187 to 189
34 | O=C(O)c1ccc(Oc2nccs2)cc1 | 162 to 163
35 | O=C(Nc1ccc2oc(N3CCOCC3)cc(=O)c2c1)OCc1ccccc1 | 245 to 250
36 | CCCc1c(OCCCOc2ccc(C(C)=O)c(OCC(=O)O)c2CCC)ccc(C(C)=O)c1O | 151 to 155
37 | COc1ccc(-c2ccccc2)cc1[N+]([O-])=NC(=O)OC(C)C | 102 to 106
38 | Cc1cc(C)nc(N(C(=O)Cl)c2cc(Cl)ccc2Cl)n1 | 121 to 123
39 | CC1(C)OC(=O)N[C@H]1Cc1ccccc1 | 59
40 | COC(=O)C(=CNc1ccc(O)cc1)C(=O)C=CC1CC=CCC1 (stereo not drawn) | 151 to 153
41 | COc1cc2c(cc1OC)CCC(C(=N)NO)=C2 | 202 to 205
42 | O=C1NC(=S)CCC1N1C(=O)c2ccccc2C1=O (stereo not drawn) | 225 to 226
43 | Cc1ccc(CCOCC(=O)O)cc1 | 65 to 67
44 | O=[N+]([O-])c1cc(Cl)ccc1N1CCc2cc(Cl)ccc21 | 130 to 133
45 | CC(C)CCc1c(-c2ccc(S(N)(=O)=O)cc2)cnn(-c2ccc(F)cc2)c1=O | 180 to 183
46 | CNC(=S)N(C)c1nccs1 | 68 to 69
47 | COc1ccc(-c2c(C#N)ccnc2SC)cc1 | 80 to 81
48 | OC1CSC(Oc2ccccc2-n2ccc3ccccc32)C(O)C1O (stereo not drawn) | 70 to 73
49 | CC(C)C[C@H](NC(=O)OCc1ccccc1)C(=O)NCCCNC(=O)[C@H](CC(C)C)NC(=O)OCc1ccccc1 | 177 to 178
50 | COc1ccc(-c2nc(CN(C)C)nc3sc(C)c(C)c23)cc1OC | 118 to 120

Row | SMILES | melting point [°C]
51 | CCN(CC)CCNC(=O)c1[nH]c(-c2ccc(Cl)cc2)c2ccccc12 | 51 to 54
52 | CCOCc1nc2c(N)nc3cc(N4CCC4=O)ccc3c2n1CCCOC(C)C | 185 to 186
53 | COc1cccc(-c2nc(Cl)nc(Nc3ccc(O)cc3)n2)c1 | 164
54 | Cc1cc(-n2ccnc2)c2cccc(OCc3c(Cl)ccc(S(=O)(=O)N4CCC[C@H]4C(=O)NCCCN(C)C(=O)OC(C)(C)C)c3Cl)c2n1 | 75
55 | CC(C)c1cc(O)cc2cc(-c3ccc(O)cc3)oc12 | 192 to 194
56 | CC(C)c1ccc(-c2ccc(F)cc2)n1C(C)CC1CC(O)CC(=O)O1 (stereo not drawn) | 167 to 169
57 | BrCc1ccc2nc(-c3cccs3)ccc2c1 | 95
58 | c1ccc(COc2ccc3nc(-c4ccc(OCc5ccccc5)c(C56CC7CC(CC(C7)C5)C6)c4)[nH]c3c2)cc1 | 265 to 275
59 | C=CCN(CC=C)C(=O)n1cnc(S(=O)(=O)CCOCC)n1 | 62 to 63
60 | Cc1ccc(-c2cnc(N)c([N+](=O)[O-])c2)cc1 | 183 to 184
61 | Cc1nn(C)c(F)c1C(=O)Nc1ccccc1C(C)CC(C)(C)C (stereo not drawn) | 78 to 80
62 | COC(=O)C1N=C(c2ccccc2)c2cc(Cl)ccc2NC1=O (stereo not drawn) | 222
63 | COc1cc(/C=C\c2ccc([N+](=O)[O-])cc2)cc(OC)c1OC | 140 to 142
64 | NC(=O)C1CCN(Cc2cnc3cc(NC(=O)c4ccc(-c5ccc(F)cc5)cc4)ccc3c2)CC1 | 261 to 265
65 | CCN(CC)C(=O)c1nc(C)c(-c2ccncc2)s1 | 87.5 to 89
66 | N/C(=C1/Sc2ccccc2C1=O)c1ccccc1N | 186 to 187
67 | CCn1c(=O)c2[nH]c(C(C)C)nc2n(Cc2ccc(OC)c(OC3CCCC3)c2)c1=O | 208 to 209
68 | Cc1nc(C)c2c(n1)CN=C(c1ccccc1)c1cc(Cl)ccc1-2 | 121 to 124
69 | CCOC(=O)c1cnc2cc(F)c(F)cc2c1 | 135
70 | COc1cc(C=O)c(Br)c(Cl)c1OC | 118 to 119
71 | COc1cccc(CCNCCc2c[nH]cn2)c1 | 98 to 100
72 | COc1cc(C=CC(=O)Nc2cnc3ccc(C)cc3c2-c2ccccc2Br)cc(OC)c1OC(C)=O | 238 to 240
73 | COC(=O)C1=C(C)NC(C)=C(C(=O)OCCN2CCN(c3ccccn3)CC2)C1c1cccc([N+](=O)[O-])c1 (stereo not drawn) | 53 to 56
74 | CN(C)c1ncc(O)c(-c2ccc(Cl)c(Cl)c2)n1 | 188 to 189
75 | C=CCn1c2ccc(OC)cc2c2c3c(c(-c4ccccc4Cl)cc21)C(=O)N(Cc1ccc(OC)cc1OC)C3=O | 171 to 173

Row | SMILES | melting point [°C]
76 | COc1cc(C(C)C)c(OC(C#N)=CNc2ccccc2)cc1I | 170
77 | CCOC(=O)c1ccc(NC(=O)C=C(c2ccc(F)cc2)c2ccc(F)cc2)cc1 | 161 to 163
78 | CC(=O)Nc1ccc2c(c1)CCC1CC(=O)NN=C21 (stereo not drawn) | 284
79 | COc1ccc(C(=O)Nc2cccc(O)c2NC(=O)c2ccc(OC)cc2)cc1 | 208 to 209
80 | CCNc1nc(N)nc(-c2ccccc2)c1-c1ccc(=O)n(C(C)C)n1 | 208 to 209
81 | COCCOCCN1C(=O)C2(COc3cc4c(cc32)OCCO4)c2ccccc21 (stereo not drawn) | 90 to 91
82 | COC(=O)Cc1ccc(OCCNC(=O)C2Cc3ccccc3N2S(=O)(=O)c2ccc(-c3ccc(Cl)cc3)c(C(F)(F)F)c2)cc1 (stereo not drawn) | 60
83 | CC(C)(C)c1ccc(OCC(N)CO)cc1 (stereo not drawn) | 102
84 | Nc1nc(O)c2c(n1)NCC(CCc1cc(C(=O)O)c[nH]1)C2 (stereo not drawn) | > 260
85 | CC1CCc2c(N3CCN(Cc4ccc(N)cc4)CC3)c(F)cc3c(=O)c(C(=O)O)cn1c23 (stereo not drawn) | 216 to 218
86 | CCCc1cc(-c2ccc(Cl)cc2)nc2c(C(=O)Nc3cccc(S(N)(=O)=O)c3)cnn12 | 252 to 254
87 | COc1cc2c(=O)n(CCCN3CCOCC3)c3c4ccccc4[nH]c(=O)c3c2cc1OC | 250 to 252
88 | CCc1cccc(CC)c1NC(=O)CN | 70 to 71
89 | Cc1ccc2c(c1)oc1c(C(=O)NC3C4CC5CC(C4)CC3C5)nn(-c3ccc(Cl)cc3Cl)c12 (stereo not drawn) | 209 to 211
90 | NC1=NS(=O)(=O)N=C1NCCCN(Cc1ccccc1)c1ccccn1 | 192 to 193
91 | Cc1cc2[nH]c3ncccc3c(=O)n2n1 | > 300
92 | CC(C)(C)OC(=O)NCCCCC(=O)Nc1cccc(C(=O)O)c1 | 188
93 | CCCN(CCC)C(=O)C(CO)Nc1nc(-c2ccccc2)nc(C)c1C (stereo not drawn) | 132 to 133
94 | COc1cn(Cc2cccc3ccccc23)c(=O)o1 | 80 to 82
95 | Nc1nc2c(s1)CCN(C/C=C\c1cccc3c1CC(=O)N3)CC2 | 192 to 195
96 | O=S(=O)(c1ccc(Cl)s1)N(CCO)CCO | 69
97 | CCOC(=O)C(C)(C)c1ccc(Br)c([N+](=O)[O-])c1 | 42 to 45
98 | CC1c2cccc3c2N(CC3)c2ccccc2N1C(=O)CCN1CCN(c2ccccc2)CC1 (stereo not drawn) | 139 to 141
